Some results are limits rather than exact numbers.

Compound `O=C(OC1CCCCCCC1)c1ncn2c1[C@@H]1CCCN1C(=O)c1c(Cl)cccc1-2` came in with a melting point of 183 to 184 °C. As for `COc1ccc(-c2c(C(=O)O)n(Cc3cc4c(cc3Cl)OCO4)c3ccccc23)cc1`, the figure is 189 to 190 °C; as for `COc1cc(C=C2NC(=O)NC2=O)cc(OC)c1`, 285 to 287 °C; as for `O=C(C1CCCCC1)N1CC(=NO)NC(=NO)C1`, more than 260 °C.

In turn, `CN(C)C(=O)Nc1snc(S(C)(=O)=O)c1C#N` displayed a melting point of 243 to 244 °C. As for `N#Cc1cc2c(=O)c3ccccc3ccn2c1`, the figure is 197 °C; as for `CCc1nn(Cc2nnc(N)o2)c(CC)c1Oc1cc(Cl)cc(Cl)c1`, 226 to 228 °C; as for `CCCCCCCCCCCc1nc(NC(=O)Nc2c(C(C)C)cccc2C(C)C)n[nH]1`, 168 to 170 °C. For `CCC(O)(c1ccccc1)c1ccccc1`, the melting point was 93 to 94 °C. With `Cc1c(C(=O)Nc2ccc(N3CCC(N4CCOCC4)CC3)c([N+](=O)[O-])c2)cnn1-c1ccc(C(F)(F)F)cc1` the figure was 225 to 230 °C; with `N#CC(=Cc1cc(O)c(O)c(C#N)c1)C(=O)Nc1cccc(Cl)c1`, 236 to 240 °C; with `CCOC(=O)C1=C(C)NC(C)=C(C(=O)OCC)C1c1cccc(Cl)c1`, 142 to 144 °C. With `C#CCOCCn1c(CN2CCN(C)CC2)nc2cccnc21` the figure was 117 °C; with `O=C(O)CS(=O)(=O)Nc1ccc(F)c(C(F)(F)F)c1`, 138 to 140 °C; with `O=C(Nc1ccc(N2CCN(Cc3ccccc3)CC2)cc1)c1ccccc1-c1ccccc1`, 162 °C.

Compound `COC(=O)c1ccc(C(=O)Nc2nc(-c3cccc(C)c3)c(-c3ccncn3)s2)cc1` returned a melting point of 339 to 341 °C.

As for `NCC(=O)Nc1ccc(Br)cc1C(=NCCO)c1ccccc1F`, the melting point was 167 to 168 °C. As for `C#CCn1c2ccccc2c2cc(Br)ccc21`, the melting point is 142 to 149 °C.

The compound `CC(=O)Nc1ccc(C)c2c1C(=O)CCC2` returned a melting point of 92 to 94 °C. As for `CCCCC1=NC2(CCCC2)C(=O)N1Cc1ccc(-c2ccccc2S(=O)(=O)Nc2onc(C)c2C)c(OCCOC)c1`, the figure is 55 to 58 °C. With `COc1cc(N)c(Cl)cc1C(=O)N[C@H]1CCN(CCNC(=O)N(C)C)C[C@H]1OC` (relative stereo) the figure was 206 °C; with `CCOc1ccc(OCc2ccccc2OCc2nc(-c3ccccc3)oc2C)cc1CCC(=O)O`, 146 to 147 °C. The compound `COC(=O)CCc1ccc(O)c([N+](=O)[O-])c1` yielded a melting point of 60 to 62 °C. With `Cn1nc(N)nc1NCCCOc1cccc(CNCC(F)(F)F)c1` the figure was 62 to 64 °C. `CCc1sc2c(c1C(=O)CCCN1CCC(c3noc4cc(F)ccc34)CC1)CCN(C(C)=O)C2`: the melting point was 93 to 95 °C.

`Cc1cc(Cl)n(-c2ccc(Cl)nn2)n1`: the melting point lay within 123 to 126 °C. With `CC(C)Sc1cc2c(cc1Cl)N=C(C(Cl)Cl)NS2(=O)=O` the figure was 287 to 289 °C.

For the compound `CC1COc2c(N3Cc4cccc(F)c4C3)c(F)cc3c(=O)c(C(=O)O)cn1c23` (stereo unspecified), the melting point is more than 300 °C. With `Clc1cccc(Nc2nc(OCC3CCCCC3)c3[nH]cnc3n2)c1`, the melting point was 196 to 199 °C. As for `COc1cc2c(cc1OC)CN(CCCCc1ccc(NC(=O)c3cnc4ccccc4n3)cc1)CC2`, the figure is 144 °C.

With `CCOP(=O)(CC(Cc1ccccc1)NS(=O)(=O)c1ccc(C)cc1)OCC` (stereo unspecified), the melting point lay in the range of 86 to 89 °C. As for `COc1ccc(-c2cnc3c(-c4cc(-c5ccccc5)cs4)cnn3c2O)cc1Br`, the figure is more than 300 °C; as for `C=Cc1cc(Cl)cc2c1OC(C(F)(F)F)C(C(=O)O)=C2` (stereo unspecified), 183 to 186 °C; as for `CN1CC[C@@H]2CC(=O)c3cc4c(cc3[C@@H]2C1)OCO4` (relative stereo), more than 250 °C. On to `CCc1nc(-c2ncn(-c3cccc(O)c3)c2C)no1`, for which the melting point lay in the range of 226 to 227 °C. With `O=C(O)c1cccc(-c2ccc3c(c2)C(Nc2ccc(Cl)cc2Cl)CO3)c1` (stereo unspecified) the figure was 164 to 165 °C; with `OC(CNc1ccc(Cl)cc1)Cn1ccnc1` (stereo unspecified), 123 to 125 °C.

In turn, `O=C(O)c1cc2cc3[nH]c(=O)[nH]c3cc2[nH]1` came in with a melting point of more than 270 °C.

The compound `O=C1c2cccc(O)c2CC12CCCCC2` showed a melting point of 162 to 164 °C.

Consider `NC(=O)CCSSSSCCC(N)=O`, for which the melting point came out at 127 °C.

`CCCCc1nc2cc(C(=O)OC)ccc2n1Cc1ccc(-c2ccccc2-c2nnn[nH]2)cc1` had a melting point of 134 to 136 °C. With `CC(C)n1nc(-c2sc(C(=O)NC3CC3)nc2-c2cccc(Cl)c2)ccc1=O` the figure was 118 to 120 °C; with `COc1cc(C(C)C)c2c(c1)S(=O)(=O)N(COc1cc(C)nn1C)C2=O`, 146 to 147 °C; with `COC1=CCC(Br)(OC)C=C1C(=O)C(Br)CCC1CCCCC1` (stereo unspecified), 96 to 104 °C. The compound `O=C1c2ccccc2C(=O)N1Cc1cccc(-c2nc(=O)c3ccccc3s2)n1` came in with a melting point of 280 to 281 °C. As for `CCC(C(=O)O)N(C(=O)c1cnn(-c2ccc(F)cc2)c1)c1ccc(OCC(C)(C)C)c(C#N)c1` (stereo unspecified), the figure is 153 to 155 °C. With `O=S(=O)(c1ccccc1)c1nccc2c1CCCC2` the figure was 109 to 112 °C; with `CCCOC(=O)c1cncn1C(C)c1ccccc1` (stereo unspecified), 156 to 157 °C. As for `Cc1noc(Cc2ccccc2Nc2c(Cl)cccc2Cl)n1`, the figure is 93.5 to 94.5 °C; as for `CCCCOCCCNC(=O)c1cnc(C(=O)NCC(=O)OCc2ccccc2)c(OC)c1`, 97 to 99 °C; as for `CC(C)c1[nH]nc2c1C(=O)c1c(NC(N)=O)cccc1-2`, more than 250 °C. As for `COc1ccc(Oc2cccnc2)cc1C#CC(C)N(O)C(N)=O` (stereo unspecified), the melting point lay in the range of 153 to 154 °C. The compound `CCCCCCCCc1ccc(OCC(=O)Cn2cccn2)cc1` registered a melting point of 85 to 87 °C.

With `CCOC(=O)C1=C(CO)NC(C(F)(F)F)=C(C(=O)OCC)C1c1cccc2nonc12` (stereo unspecified), the melting point was 110 to 111 °C.

In the case of `CC12CCC3C(CCC4CC(CC(=O)O)CCC43C)C1CCC2CC=O` (stereo unspecified), the melting point lay in the range of 189 to 192 °C. With `CC12CCC(O)CC1=CCC1C2CCC2(C)C(=NC3CC3)CCC12` (stereo unspecified) the figure was 187 °C.

On to `COC(=O)c1cccnc1C(=O)CC(=O)c1ccccc1`, for which the melting point turned out to be 87 °C. With `O=C(O)COc1ccc(SCc2ccc(OC3CCc4cc(Cl)ccc43)cc2)c2c1CCC2` (stereo unspecified) the figure was 169 to 170 °C; with `CC(C=CC=C(C)CO)=CC=CC=C(C)C1OCC(C)(C)CO1`, 136 to 137 °C; with `COc1cc(C(C)=O)ccc1OCCCN1CCC(c2n[nH]c3cc(F)ccc23)CC1`, 202 to 204 °C.

`NC(=O)C1CN1C(=O)Oc1ccccc1` (stereo unspecified) returned a melting point of 140 to 142 °C. With `OC1CSC(Oc2ccc(-c3ccnc(Cl)c3)nc2)C(O)C1O` (stereo unspecified) the figure was 179 °C. As for `CC1(C)O[C@@H](CC(=O)O)C[C@@H](C=Cc2ccccc2)O1` (relative stereo), the figure is 153 to 155 °C; as for `COC(=O)c1cc2ccc(OC)cc2cc1/N=C/N(C)C`, 122 to 124 °C. With `CN1C(=S)Cc2ccccc21` the figure was 108 to 109 °C. In turn, `N=C(NO)c1ccc(N)nc1` returned a melting point of 300 °C. With `CC(=O)c1ccc(-c2cnn3c(O)ncnc23)cc1` the figure was more than 300 °C; with `CCOC(=O)C1CC1C(=O)O` (stereo unspecified), 46 °C. As for `COC(=O)COc1ccc2c(c1)Oc1cc(O)ccc1C21OC(=O)c2ccccc21` (stereo unspecified), the figure is 236 °C. With `CSC(=CC(=O)c1cccc(C(F)(F)F)c1)SC` the figure was 89.5 °C; with `CCC1c2cc(F)ccc2-c2ccccc2N1C(=O)c1ccc(O)cc1F` (stereo unspecified), 109 to 111 °C; with `N#CCC(=NC#N)N1CCCC1`, 45 °C. The compound `Nc1ccc(CCCn2cnnc2)cc1` returned a melting point of 150 to 153 °C. As for `CSc1nn(-c2c(Cl)cc(C(F)(F)F)cc2Cl)nc1C`, the figure is 38 to 40 °C; as for `Cn1ncc(C(=O)NN)c1S(N)(=O)=O`, 172 to 173 °C; as for `O=C(C=C(O)c1cccs1)C1CCN(Cc2ccccc2)CC1`, 80 to 83 °C. Take `CC(C)NCC(=O)Nc1ccc2c(c1)C(=O)c1cc(NC(=O)CNC(C)C)ccc1C2=O`: the melting point is 158 °C.

Compound `CCCO/N=C(\C(=O)OC)c1csc(NC(=O)CCl)n1` returned a melting point of 86 to 87 °C.

As to `Cc1ccccc1C1C(C#N)=C(c2cccs2)Nc2n[nH]cc21` (stereo unspecified), the melting point is 276 °C. With `O=c1[nH]c(-c2csc3ccccc23)nc2ccc(N3CCCCC3)cc12` the figure was more than 300 °C; with `N#CN(c1ccccc1)c1nc(N(C#N)c2ccccc2)nc(N(C#N)c2ccccc2)n1`, 209 to 215 °C. With `CC(=O)OCc1ccccc1C(=O)C(N)=O` the figure was 86.5 to 88 °C. As for `CCOC(=O)Cc1cccc(Cc2nc3cc(F)cc(F)c3s2)c1`, the figure is 66 to 67 °C; as for `COC(=O)C=Cc1ccc(-c2ccc(OC(F)(F)F)cc2)cc1`, 98 to 100 °C; as for `CCOc1c(F)cc2[nH]c(=O)c(=O)[nH]c2c1[N+](=O)[O-]`, 293 to 295 °C.

For `COc1ccc(Nc2nc(Cl)nc(NC3CCCCCC3)n2)cc1Cl`, the melting point came out at 146 °C. As for `Clc1c(-c2ccccc2)noc1NCC#CI`, the figure is 133 to 135 °C; as for `COc1ccc(C(=O)[C@H]2C[C@H]2C(=O)O)cc1` (relative stereo), 170 to 172 °C. As for `COC(=O)c1ccc(COc2ccc3cc(-c4ccc(-c5ccccc5)n4Cc4ccc(C(F)(F)F)cc4)ccc3c2)cc1`, the figure is 154 to 155 °C; as for `O=C1OCCC1=Cc1ccccc1OCC(O)CN1CCC(c2ccc3ccccc3c2)CC1` (stereo unspecified), 127 to 128 °C. As for `COc1ccc(S(=O)(=O)n2c(Cl)nc3c2c(=O)n(CC2CC2)c(=O)n3CC2CC2)cc1`, the figure is 118 °C.

As usually defined, the melting point is the temperature, or range, at which the solid turns liquid.
